US20070026080A1, “Manufacturing process for tigecycline” (Wyeth, priority 2005, published 2007)
Several values for one entry are separate records, joined by “and”; a condition that tells them apart may be missing. Identical values can stand only once.

Test: Strength and degradation profile of tigecycline 20 mg/mL bulk solutions by reversed phase HPLC (effect of temperature, time, pH, dissolved oxygen; Runs A to O)
Type: physicochemical
Settings: 20 mg/mL
Protocol: The contents of the sample vials are dissolved in diluent. The sample solution is diluted, if necessary, and chromatographed on a reversed phase column using gradient elution. Impurities are determined by comparing the impurity peak areas in the sample preparation chromatogram to the average area of tigecycline peaks in the standard preparation chromatograms obtained concomitantly.
Chromatographic Column—Length about 15 cm, inside diameter about 4.6 mm, packed with Inertsil ODS2, 5 μm size particles or equivalent.
Detector—Ultraviolet spectrophotometric detector capable of operating at 248 nm with a sensitivity of about 0.5 absorbance units full scale.
The results of additional studies to investigate the effect of processing parameters such as temperature, time, and dissolved oxygen content on the purity profile of tigecycline solutions using the following materials, methods and procedures are presented in Tables A to O.
The experiments were run in plastic glove bags under normal laboratory light conditions. Plastic glove boxes will be used to control the headspace of the beakers. The batch size was 200 mL. • 1. Prepare the glove bag with a mixture of nitrogen and air to achieve an oxygen level in the solution as per the design. • 2. Place the jacketed beaker on the magnetic stirrer. Connect it to the cooler. Set the cooler to the desired set point. • 3. Add 200 mL of SWFI in to the beaker. Allow equilibrating. Measure the temperature and oxygen content. When it reaches the desired condition, add accurately weighed API and mix until dissolved. If necessary use spatula to aid dissolution. For pH adjustments, use 4 mL of either 0.1N NaOH or 0.1N HCl and 196 mL of WFI for manufacture. • 4. After complete dissolution, Transfer about 5.5 mL of Solution in vials and stopper them. These vials will be stoppered at the appropriate headspace conditions. Place the vials in appropriate temperature conditions. • 5. Sample the vials at 1, 4, 8, 10, 12 and 24 hours. Send the samples for analysis. Freeze the 10, 12 and 24 samples at −20° C. for analysis the following day. • 6. Measure pH and record color of the solution at each time point. Results
The 1-hour samples were taken directly from the beakers. Samples for later time points were collected in stoppered vials processed in the atmosphere of the bag in order to simulate the headspace conditions then placed in water baths or refrigerator to maintain there respective temperature conditions. This was done to maintain safety in the lab. Disposable plastic glove bags require constant flow of a mixture of nitrogen and air to maintain headspace oxygen level that will result in the desired dissolved oxygen (DO) content in the sample. The pH of samples was measured at each sample points.
Strength and degradation profile was analyzed by HPLC as described above. […] Degradation was slightly higher at higher temperature condition.

[1] = Run #A, 2° C., pH 8.2, Oxygen 2.0 mg/L, hours 1,4,8,10,12,24 at r6-r11
[2] = Run #A, 2° C., pH 8.2, Oxygen 2.0 mg/L, hours 1,4,8,10,12,24 at r17-r22
[3] = Run #B, 8° C., pH 8.2, Oxygen 2.0 mg/L, hours 1,4,8,10,12,24 at r6-r11, 1 hours
[4] = Run #B, 8° C., pH 8.2, Oxygen 2.0 mg/L, hours 1,4,8,10,12,24 at r6-r11, 4 hours
[5] = Run #B, 8° C., pH 8.2, Oxygen 2.0 mg/L, hours 1,4,8,10,12,24 at r6-r11, 8 hours
[6] = Run #B, 8° C., pH 8.2, Oxygen 2.0 mg/L, hours 1,4,8,10,12,24 at r6-r11, 10 hours
[7] = Run #B, 8° C., pH 8.2, Oxygen 2.0 mg/L, hours 1,4,8,10,12,24 at r6-r11, 12 hours
[8] = Run #B, 8° C., pH 8.2, Oxygen 2.0 mg/L, hours 1,4,8,10,12,24 at r6-r11, 24 hours
[9] = Run #B, 8° C., pH 8.2, Oxygen 2.0 mg/L, hours 1,4,8,10,12,24 at r17-r22, 1 hours
[10] = Run #B, 8° C., pH 8.2, Oxygen 2.0 mg/L, hours 1,4,8,10,12,24 at r17-r22, 4 hours
[11] = Run #B, 8° C., pH 8.2, Oxygen 2.0 mg/L, hours 1,4,8,10,12,24 at r17-r22, 8 hours
[12] = Run #B, 8° C., pH 8.2, Oxygen 2.0 mg/L, hours 1,4,8,10,12,24 at r17-r22, 10 hours
[13] = Run #B, 8° C., pH 8.2, Oxygen 2.0 mg/L, hours 1,4,8,10,12,24 at r17-r22, 12 hours
[14] = Run #B, 8° C., pH 8.2, Oxygen 2.0 mg/L, hours 1,4,8,10,12,24 at r17-r22, 24 hours
[15] = Run #C, 2° C., pH 7.7, Oxygen 2 mg/L, hours 1,4,8,10,12,24 at r6-r11
[16] = Run #C, 2° C., pH 7.7, Oxygen 2 mg/L, hours 1,4,8,10,12,24 at r6-r11, 1 h hold time
[17] = Run #C, 2° C., pH 7.7, Oxygen 2 mg/L, hours 1,4,8,10,12,24 at r6-r11, 4 h hold time
[18] = Run #C, 2° C., pH 7.7, Oxygen 2 mg/L, hours 1,4,8,10,12,24 at r6-r11, 10 h hold time
[19] = Run #C, 2° C., pH 7.7, Oxygen 2 mg/L, hours 1,4,8,10,12,24 at r6-r11, 12 h hold time
[20] = Run #C, 2° C., pH 7.7, Oxygen 2 mg/L, hours 1,4,8,10,12,24 at r6-r11, 24 h hold time
[21] = Run #C, 2° C., pH 7.7, Oxygen 2 mg/L, hours 1,4,8,10,12,24 at r17-r22, 1 h hold time
[22] = Run #C, 2° C., pH 7.7, Oxygen 2 mg/L, hours 1,4,8,10,12,24 at r17-r22, 4 h hold time
[23] = Run #C, 2° C., pH 7.7, Oxygen 2 mg/L, hours 1,4,8,10,12,24 at r17-r22, 8 h hold time
[24] = Run #C, 2° C., pH 7.7, Oxygen 2 mg/L, hours 1,4,8,10,12,24 at r17-r22, 10 h hold time
[25] = Run #C, 2° C., pH 7.7, Oxygen 2 mg/L, hours 1,4,8,10,12,24 at r17-r22, 24 h hold time
[26] = Run #D, 8° C., pH 7.7, Oxygen 2.0 mg/L, hours 1,4,8,10,12,24 at r6-r11, after 1 hours

## CN(C)c1cc(NC(=O)CNC(C)(C)C)c(O)c2c1C[C@H]1C[C@H]3[C@H](N(C)C)C(O)=C(C(N)=O)C(=O)[C@@]3(O)C(O)=C1C2=O [Tigecycline]
[1]
  RRT 0.58: 0.06% and 0.07%
  RRT 0.64 9-Amino: BRL (BRL means below reporting limit (meaning less than 0.05% of tigecycline peak))
  RRT 0.74 Epimer: 0.26% and 0.23% and 0.18% and 0.20% and 0.19% and 0.25%
  Strength: 19.901 mg/mL and 19.504 mg/mL and 19.639 mg/mL and 19.610 mg/mL and 19.473 mg/mL and 19.806 mg/mL
[2]
  RRT 1.12: BRL (BRL means below reporting limit (meaning less than 0.05% of tigecycline peak))
  RRT 1.45: 0.06% and 0.08% and 0.07% and 0.09%
  RRT 1.58: BRL (BRL means below reporting limit (meaning less than 0.05% of tigecycline peak))
  RRT 1.64 Mino: 0.10% and 0.11%
  RRT 1.85 MW = 597: 0.06% and 0.08% and 0.07% and 0.14%
  Total: 0.47% and 0.76% and 0.86% and 1.26% and 1.40% and 1.86%
[3]
  RRT 0.55 MW = 583: 0.11%
  Strength: 19.149 mg/mL
[4]
  RRT 0.55 MW = 583: 0.20%
  Strength: 19.046 mg/mL
[5]
  RRT 0.55 MW = 583: 0.27%
  Strength: 18.795 mg/mL
[6]
  RRT 0.55 MW = 583: 0.32%
  Strength: 19.144 mg/mL
[7]
  RRT 0.55 MW = 583: 0.29%
  Strength: 18.668 mg/mL
[8]
  RRT 0.55 MW = 583: 0.42%
  Strength: 17.784 mg/mL
[9]
  RRT 0.74 Epimer: 0.20%
  RRT 1.64 Mino: 0.10%
  RRT 1.67 MW = 556: 0.14%
  RRT 1.85 MW = 597: 0.08%
  Total: 0.75%
[10]
  RRT 0.74 Epimer: 0.19%
  RRT 1.64 Mino: 0.05%
  RRT 1.67 MW = 556: 0.25%
  RRT 1.85 MW = 597: 0.07%
  Total: 1.12%
[11]
  RRT 0.74 Epimer: 0.23%
  RRT 1.64 Mino: 0.07%
  RRT 1.67 MW = 556: 0.35%
  Total: 1.85%
[12]
  RRT 0.74 Epimer: 0.22%
  RRT 1.64 Mino: 0.11%
  RRT 1.67 MW = 556: 0.29%
  RRT 1.85 MW = 597: 0.09%
  Total: 2.38%
[13]
  RRT 0.74 Epimer: 0.24%
  RRT 1.64 Mino: 0.09%
  RRT 1.67 MW = 556: 0.23%
  Total: 2.61%
[14]
  RRT 1.67 MW = 556: 0.50%
  RRT 1.85 MW = 597: 0.11%
  Total: 5.36%
[15]
  RRT 0.12 MW = 633: BRL (BRL means below reporting limit (meaning less than 0.05% of tigecycline peak))
  RRT 0.64 9-Amino: BRL (BRL means below reporting limit (meaning less than 0.05% of tigecycline peak))
[16]
  RRT 0.58: 0.08%
  RRT 0.74 Epimer: 0.20%
  Strength: 19.339 mg/mL
[17]
  RRT 0.58: 0.06%
  RRT 0.74 Epimer: 0.19%
  Strength: 19.246 mg/mL
Run #C, 2° C., pH 7.7, Oxygen 2 mg/L, hours 1,4,8,10,12,24 at r6-r11, 8 h hold time
  Strength: 19.031 mg/mL
[18]
  RRT 0.74 Epimer: 0.27%
  Strength: 19.415 mg/mL
[19]
  RRT 0.58: 0.07%
  RRT 0.74 Epimer: 0.30%
  Strength: 19.048 mg/mL
[20]
  RRT 0.58: 0.05%
  RRT 0.74 Epimer: 0.21%
  Strength: 19.226 mg/mL
Run #C, 2° C., pH 7.7, Oxygen 2 mg/L, hours 1,4,8,10,12,24 at r17-r22
  RRT 1.12: BRL (BRL means below reporting limit (meaning less than 0.05% of tigecycline peak))
[21]
  RRT 1.45: 0.07%
  RRT 1.64 Mino: 0.10%
  RRT 1.85 MW = 597: 0.06%
  Total: 0.59%
[22]
  RRT 1.64 Mino: 0.09%
  Total: 0.60%
[23]
  RRT 1.45: 0.13%
  RRT 1.64 Mino: 0.11%
  RRT 1.85 MW = 597: 0.07%
  Total: 0.87%
[24]
  RRT 1.85 MW = 597: 0.08%
  Total: 1.20%
Run #C, 2° C., pH 7.7, Oxygen 2 mg/L, hours 1,4,8,10,12,24 at r17-r22, 12 h hold time
  Total: 1.38%
[25]
  RRT 1.45: 0.06%
  Total: 1.52%
Run #D, 8° C., pH 7.7, Oxygen 2.0 mg/L, hours 1,4,8,10,12,24 at r6-r11
  RRT 0.64 9-Amino: BRL (BRL means below reporting limit (meaning less than 0.05% of tigecycline peak))
[26]
  RRT 0.55 MW = 583: 0.08%
  RRT 0.74 Epimer: 0.19%
